The values that follow come from patent US11273152B2, “TRPV2 antagonists” (Instituto de Medicina Molecular João Lobo Antunes, priority 2017, dated 2022).

“Also recorded” adds a separate entry of the source.

Series [1] has as its system chiru TRPV2 orthologue. The series can be described thus: Isothermal titration calorimetry, chiru TRPV2. The conditions noted are these: chiru TRPV2 constructs; 100 μM. The series is classed as binding. (In general: In ITC the heat of successive injections is recorded.)
Series [2] has as its target TRPC3 (Homo sapiens, UniProt Q13507). The series can be described thus: Fluorescence cell-based assay, TRPC3. Conditions: membrane potential dye, duplicate. The protocol: (§1) The assays were performed at SB Discovery (Glasgow, UK) on a fee-for-service basis. Human TRP cells were trypsinised, counted and seeded in black, clear-bottomed 96 well plates at a density of 50,000 cells per well in 100 μL volume and incubated overnight. Next day, the cells were loaded with calcium 5 dye or membrane potential dye. TRPV1-5, TRPA1, TRPM2, TRPM3, and TRPM8 were tested using the calcium 5 dye. TRPC1, TRPC3-7, and TRPM4-5 were tested using the membrane potential dye. Both dye solutions were made up in HEPES buffered Hank's balanced salt solution (HBSS). Dye solution (90 μL) was added to the wells and incubated at 37° C. for 1 hour. Test compounds and standard inhibitors (10 μL) were then added to the wells and incubated at room temperature for 10 minutes. The plates were then placed in the flexstation and fluorescence monitored every 1.52 seconds. After 20 seconds agonist was added and the fluorescence monitored for 2 minutes at 485 nm/525 nm and 530 nm/565 nm, Ex/Em, for the calcium 5 dye and the membrane potential dye respectively. Controls-TRPV1: capsazepine; TRPV2: tranilast; TRPV3: ruthenium red; TRPV4: ruthenium red; TRPV5: Gd^3+; TRPA1, ruthenium red; TRPC1: Gd^3+; TRPC3: Pyr3; TRPC4: ML 204; TRPC5: ML 204; TRPC6: ML 204; TRPC7: SKF 96365; TRPM2: 2-APB; TRPM3: Mef acid; TRPM4: clotrimazole; TRPM5: TPPO; TRPM8: 2-APB. […]

Series [3] deals with U251 cells. The series can be described thus: Viability of U251 cells transiently over-expressing hTRPV2. The class given is cell-based, human. The conditions noted are these: 5 μM PL, 24 hours, p=0.0002, n=9, listed as PL. As to the method:
50,000 U251 cells were seeded in each well of a 24 well plate. The next day cells were transfected with hTRPV2-RFP plasmid. After incubating for 48 hours the media was changed and PL was added at 5 and 10 μM. 24 hours later cell viability was assessed using CellTitre-Blue (Promega). Transfection efficiency was assessed using flow cytometry.
Cells were harvested from plates by washing with media (HEK293) or TrypLE express (Gibco). The media was removed after centrifugation and the cells were washed twice with binding buffer before being incubated for 30 minutes at room temperature with Annexin V-APC (eBiosciences, 1:100) and 7-AAD (Pharmigen, 1:50). Samples were diluted with binding buffer and analyzed by flow cytometry using BD LSRFortessa X-20 with FACS Diva software. Samples with single stains were used as controls.

In series [4] the test system is NCI-60 cancer cell lines. The series can be described thus: NCI-60 Human Tumor Cell Lines Screen. The class given is cell-based. The conditions noted are these: Gl50 and IC50 -z scores; five concentrations. The protocol:
Piperlongumine was submitted to the NCI-60 Human Tumor Cell Lines Screen and its activity was measured at five concentration levels (0.01, 0.1, 1, 10 and 100 μM) in 59 NCI-60 cell lines with four dose response parameters (Gl50, IC50, LC50 and TGI). The TRPV2 normalized gene expression (averaged probe intensities combined from five microarray platforms) in NCI-60 cell lines was downloaded from the CellMiner database ^36,37. The Spearman correlation was used to test the interdependence between TRPV2 expression levels and piperlongumine IC50 values against 57 cancer cell lines.

A short description of series [5]: Dynamic light scattering, colloidal aggregation. The series is classed as physicochemical. Conditions: water, 25° C. As to the method:
Dynamic light scattering (Zetasizer Nano S, Malvern, UK) was used to determine compound colloidal aggregation. The particle sizes were measured at 25° C. Water solubility was measured as described elsewhere with successive measurements within 60 minutes.^35 A 100 mM stock solution of piperlongumine was prepared in DMSO, following dilution to deionized water to obtain an analyte solution of 100 μM (0.1% DMSO). Colloidal aggregation was measured through sequential dilutions.

Series [6] deals with TRPM3 (Homo sapiens, UniProt Q9HCF6). The series can be described thus: Fluorescence cell-based assay, TRPM3. The conditions noted are these: calcium 5 dye, duplicate. The protocol:
as §1

Series [7] addresses TRPC4 (Homo sapiens, UniProt Q9UBN4). The series can be described thus: Fluorescence cell-based assay, TRPC4. The conditions noted are these: membrane potential dye, duplicate. As to the method: as §1
In series [8] the target is TRPM5 (Homo sapiens, UniProt Q9NZQ8). The series can be described thus: Fluorescence cell-based assay, TRPM5. Conditions: membrane potential dye, duplicate. The protocol:
as §1

Series [9] concerns sperm whale TRPV2 orthologue. The series can be described thus: Isothermal titration calorimetry, sperm whale TRPV2. The class given is binding. Conditions: sperm whale TRPV2 constructs; 100 μM.
The target in series [10] is TRPM2 (Homo sapiens, UniProt O94759). The series can be described thus: Fluorescence cell-based assay, TRPM2. Conditions: calcium 5 dye, duplicate. As to the method: as §1
Series [11] concerns U251 cells. The series can be described thus: Toxicity assay (CellTiter-Blue), U251. The series is classed as cell-based. Conditions: 24, 48 and 72 hours; various concentrations. As to the method:
5,000 cells/well were seeded in 96 well plates with DMEM containing 2% FBS. The next day piperlongumine was added at various concentrations. […] At 24, 48 and 72 hours the media was removed and replaced with CellTiter-Blue (Promega, 1:20 in media). The plate was incubated for 90 minutes before measuring fluorescence intensity.
(In general: The colour change of resazurin is a common sign of viable cells or microbes.)

By IC50 is commonly meant the concentration that inhibits the measured activity by half.

TRPM2, sequence (O94759 whole entry): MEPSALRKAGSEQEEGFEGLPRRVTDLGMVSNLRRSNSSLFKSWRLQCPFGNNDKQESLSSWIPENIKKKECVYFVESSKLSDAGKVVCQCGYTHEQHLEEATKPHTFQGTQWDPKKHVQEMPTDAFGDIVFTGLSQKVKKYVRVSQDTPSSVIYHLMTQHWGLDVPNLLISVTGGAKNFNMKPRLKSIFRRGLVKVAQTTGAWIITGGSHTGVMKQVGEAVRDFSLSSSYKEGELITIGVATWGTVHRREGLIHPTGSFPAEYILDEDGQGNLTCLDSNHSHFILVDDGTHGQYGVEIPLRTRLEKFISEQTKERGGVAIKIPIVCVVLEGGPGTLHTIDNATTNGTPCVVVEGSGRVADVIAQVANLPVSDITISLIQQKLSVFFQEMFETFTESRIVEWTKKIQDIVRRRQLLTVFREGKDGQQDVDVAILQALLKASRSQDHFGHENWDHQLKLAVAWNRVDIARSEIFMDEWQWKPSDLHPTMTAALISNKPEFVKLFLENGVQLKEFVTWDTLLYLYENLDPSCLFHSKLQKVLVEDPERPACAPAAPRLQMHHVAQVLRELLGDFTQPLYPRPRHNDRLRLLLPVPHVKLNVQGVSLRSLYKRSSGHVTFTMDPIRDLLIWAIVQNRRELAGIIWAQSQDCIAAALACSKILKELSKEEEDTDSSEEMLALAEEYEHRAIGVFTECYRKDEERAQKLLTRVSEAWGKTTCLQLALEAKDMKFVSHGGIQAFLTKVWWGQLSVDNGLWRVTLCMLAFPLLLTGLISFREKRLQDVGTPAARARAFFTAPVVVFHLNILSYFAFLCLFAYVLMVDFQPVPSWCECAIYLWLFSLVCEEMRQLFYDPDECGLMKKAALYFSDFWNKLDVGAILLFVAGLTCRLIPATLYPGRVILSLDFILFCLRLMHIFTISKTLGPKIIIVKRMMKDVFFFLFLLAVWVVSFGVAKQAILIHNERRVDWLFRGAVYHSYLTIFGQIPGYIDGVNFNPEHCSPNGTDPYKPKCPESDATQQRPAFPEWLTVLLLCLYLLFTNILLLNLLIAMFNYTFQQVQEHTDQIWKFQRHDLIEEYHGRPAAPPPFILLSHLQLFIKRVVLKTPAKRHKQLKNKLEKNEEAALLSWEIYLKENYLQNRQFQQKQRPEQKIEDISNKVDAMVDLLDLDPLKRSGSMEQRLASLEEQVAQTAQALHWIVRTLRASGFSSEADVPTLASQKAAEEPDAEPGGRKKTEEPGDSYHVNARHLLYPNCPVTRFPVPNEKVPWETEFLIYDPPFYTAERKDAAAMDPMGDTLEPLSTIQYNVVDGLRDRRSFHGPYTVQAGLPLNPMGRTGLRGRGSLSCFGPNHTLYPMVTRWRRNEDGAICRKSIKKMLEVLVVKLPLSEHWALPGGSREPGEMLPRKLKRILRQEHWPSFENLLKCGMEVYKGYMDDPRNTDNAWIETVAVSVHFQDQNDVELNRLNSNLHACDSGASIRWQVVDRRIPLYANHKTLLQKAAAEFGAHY
TRPC4, sequence (Q9UBN4 whole entry): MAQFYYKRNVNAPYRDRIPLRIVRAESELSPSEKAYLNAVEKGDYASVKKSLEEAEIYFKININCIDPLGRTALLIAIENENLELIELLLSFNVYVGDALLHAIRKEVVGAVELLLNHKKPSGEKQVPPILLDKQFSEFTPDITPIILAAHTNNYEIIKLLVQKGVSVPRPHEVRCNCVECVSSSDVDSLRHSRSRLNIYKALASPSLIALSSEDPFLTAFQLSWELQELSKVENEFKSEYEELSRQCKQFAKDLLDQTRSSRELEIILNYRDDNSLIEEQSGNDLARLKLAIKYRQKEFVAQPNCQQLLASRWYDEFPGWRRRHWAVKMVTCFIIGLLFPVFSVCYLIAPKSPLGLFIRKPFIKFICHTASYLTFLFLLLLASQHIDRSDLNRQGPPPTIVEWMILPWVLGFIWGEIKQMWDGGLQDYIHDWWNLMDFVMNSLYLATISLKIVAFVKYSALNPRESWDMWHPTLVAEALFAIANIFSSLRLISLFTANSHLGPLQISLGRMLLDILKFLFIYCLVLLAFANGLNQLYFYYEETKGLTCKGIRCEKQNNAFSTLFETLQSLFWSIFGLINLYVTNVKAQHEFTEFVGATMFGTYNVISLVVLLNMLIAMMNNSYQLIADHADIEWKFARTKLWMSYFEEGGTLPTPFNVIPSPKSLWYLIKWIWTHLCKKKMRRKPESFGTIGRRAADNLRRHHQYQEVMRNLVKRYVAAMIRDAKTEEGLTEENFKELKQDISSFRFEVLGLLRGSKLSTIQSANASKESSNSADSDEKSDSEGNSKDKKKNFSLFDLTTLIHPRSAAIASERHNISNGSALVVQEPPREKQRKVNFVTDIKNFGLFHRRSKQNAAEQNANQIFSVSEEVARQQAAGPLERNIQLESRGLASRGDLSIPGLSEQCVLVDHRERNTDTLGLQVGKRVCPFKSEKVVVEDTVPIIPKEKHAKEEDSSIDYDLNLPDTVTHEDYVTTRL
TRPM3, sequence (Q9HCF6 whole entry): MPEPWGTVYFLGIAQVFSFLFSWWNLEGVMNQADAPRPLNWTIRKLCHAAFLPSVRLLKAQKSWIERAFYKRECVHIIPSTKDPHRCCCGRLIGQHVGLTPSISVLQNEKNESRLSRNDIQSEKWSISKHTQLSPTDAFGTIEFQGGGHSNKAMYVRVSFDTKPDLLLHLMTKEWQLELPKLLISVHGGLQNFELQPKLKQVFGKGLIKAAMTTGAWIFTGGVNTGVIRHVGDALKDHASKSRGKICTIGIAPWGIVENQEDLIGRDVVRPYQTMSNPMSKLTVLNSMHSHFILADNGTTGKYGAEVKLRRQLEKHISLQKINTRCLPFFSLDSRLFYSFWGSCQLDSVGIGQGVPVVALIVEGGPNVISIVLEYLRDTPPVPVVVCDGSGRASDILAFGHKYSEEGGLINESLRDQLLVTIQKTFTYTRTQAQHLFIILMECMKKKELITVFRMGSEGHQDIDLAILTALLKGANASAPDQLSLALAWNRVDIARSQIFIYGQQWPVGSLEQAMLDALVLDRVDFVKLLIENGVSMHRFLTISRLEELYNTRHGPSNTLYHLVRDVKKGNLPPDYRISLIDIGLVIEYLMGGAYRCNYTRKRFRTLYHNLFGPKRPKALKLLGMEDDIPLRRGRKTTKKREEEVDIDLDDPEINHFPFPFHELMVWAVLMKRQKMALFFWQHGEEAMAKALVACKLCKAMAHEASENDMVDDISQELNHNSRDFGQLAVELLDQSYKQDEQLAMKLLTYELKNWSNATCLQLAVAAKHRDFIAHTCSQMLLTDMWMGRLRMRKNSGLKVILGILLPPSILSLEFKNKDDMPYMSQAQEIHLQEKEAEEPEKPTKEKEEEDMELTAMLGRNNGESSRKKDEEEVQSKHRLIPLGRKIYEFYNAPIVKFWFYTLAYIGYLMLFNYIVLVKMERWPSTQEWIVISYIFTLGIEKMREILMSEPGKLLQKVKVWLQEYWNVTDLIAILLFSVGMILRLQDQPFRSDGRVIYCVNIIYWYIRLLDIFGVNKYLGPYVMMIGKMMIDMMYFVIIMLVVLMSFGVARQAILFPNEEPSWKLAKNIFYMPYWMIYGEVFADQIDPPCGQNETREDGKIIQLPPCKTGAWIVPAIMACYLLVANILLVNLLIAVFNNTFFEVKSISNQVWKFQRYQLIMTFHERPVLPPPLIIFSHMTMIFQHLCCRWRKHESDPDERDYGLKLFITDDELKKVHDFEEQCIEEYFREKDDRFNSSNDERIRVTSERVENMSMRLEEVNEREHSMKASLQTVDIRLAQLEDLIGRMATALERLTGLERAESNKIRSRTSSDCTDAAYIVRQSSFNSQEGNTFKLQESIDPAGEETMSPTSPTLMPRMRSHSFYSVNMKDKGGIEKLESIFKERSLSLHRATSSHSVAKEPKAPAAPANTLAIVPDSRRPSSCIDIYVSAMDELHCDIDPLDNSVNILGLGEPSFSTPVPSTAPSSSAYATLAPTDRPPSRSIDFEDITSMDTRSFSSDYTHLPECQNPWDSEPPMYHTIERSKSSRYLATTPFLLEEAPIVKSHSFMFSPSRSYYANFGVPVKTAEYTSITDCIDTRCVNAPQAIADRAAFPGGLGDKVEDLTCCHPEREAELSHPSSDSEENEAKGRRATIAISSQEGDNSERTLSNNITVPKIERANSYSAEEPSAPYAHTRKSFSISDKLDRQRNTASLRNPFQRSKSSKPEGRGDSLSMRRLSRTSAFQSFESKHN
TRPC3, sequence (Q13507 whole entry): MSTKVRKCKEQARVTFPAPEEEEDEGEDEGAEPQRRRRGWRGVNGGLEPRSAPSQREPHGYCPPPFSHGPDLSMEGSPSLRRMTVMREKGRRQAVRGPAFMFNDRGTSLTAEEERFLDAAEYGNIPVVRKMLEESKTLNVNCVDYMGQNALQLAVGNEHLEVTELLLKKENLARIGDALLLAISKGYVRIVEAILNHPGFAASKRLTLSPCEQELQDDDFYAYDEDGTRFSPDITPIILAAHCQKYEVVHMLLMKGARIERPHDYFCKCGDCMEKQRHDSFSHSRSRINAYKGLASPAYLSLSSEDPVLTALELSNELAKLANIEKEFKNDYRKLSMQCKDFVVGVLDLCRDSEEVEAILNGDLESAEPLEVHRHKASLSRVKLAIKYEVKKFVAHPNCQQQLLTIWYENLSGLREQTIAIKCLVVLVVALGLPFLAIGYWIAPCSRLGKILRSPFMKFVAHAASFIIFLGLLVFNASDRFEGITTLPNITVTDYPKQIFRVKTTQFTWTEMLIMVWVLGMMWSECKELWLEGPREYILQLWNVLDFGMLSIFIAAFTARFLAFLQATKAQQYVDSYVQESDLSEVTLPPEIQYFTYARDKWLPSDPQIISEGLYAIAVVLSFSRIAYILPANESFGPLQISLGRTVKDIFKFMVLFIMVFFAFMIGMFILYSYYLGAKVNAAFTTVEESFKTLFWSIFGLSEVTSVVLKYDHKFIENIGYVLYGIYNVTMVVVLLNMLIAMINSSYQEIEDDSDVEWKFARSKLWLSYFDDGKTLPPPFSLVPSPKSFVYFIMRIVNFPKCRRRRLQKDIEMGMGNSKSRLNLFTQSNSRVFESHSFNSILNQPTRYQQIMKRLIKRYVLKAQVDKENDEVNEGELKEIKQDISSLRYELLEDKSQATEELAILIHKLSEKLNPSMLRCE

With `COc1cc(/C=C/C(=O)N2CCC=CC2=O)cc(OC)c1OC` [Compound 1, piperlongumine], the “Binding by isothermal titration calorimetry” value in series [1] and in series [9] was “did not bind” each time. Further, the 50% inhibitory concentration (IC50) in series [2], in series [6], in series [7], in series [8] and in [10] was more than 100 µM each time. Also, in series [3], the “Viability of hTRPV2-transfected cells vs non-transfected controls” value is “reduced viability compared to the non-transfected controls; also recorded: increases PL toxicity”. Further, the “Anti-proliferative activity across NCI-60, most sensitive tissues” value in series [4] was “blood, colon and skin cancer cell lines were found to be the most sensitive”. In addition, the “Colloidal aggregation (dynamic light scattering)” value in series [5] is listed as “absence of colloidal aggregate-induced inhibition”. Also, the “Sensitivity of U251 cells” value in series [11] was “sensitive to PL in a dose- and time-dependent manner”.
